Earlier results on 127 compounds are cited in the CATMoS acute toxicity set (Mansouri et al. 2021).

Values joined by “and” are separate entries in the source; they are usually repeats but may differ in a detail not shown here. Equal values may be shown once.

By LD50 is commonly meant the dose expected to kill half of the subjects tested.

The data set is described as follows: rat acute oral toxicity. Conditions: in vivo.
For the compound `O=C(O)c1cc(-n2c(-c3ccccc3)cc3c2CCc2ccccc2-3)ccc1O`, the LD50 is 450 mg/kg.

`COc1cc(C(=O)OCCCN(C)CCN(C)CCCOC(=O)c2cc(OC)c(OC)c(OC)c2)cc(OC)c1OC`: the LD50 is 2550 mg/kg.

`C=CCc1cc(OC)c2c(c1)OCO2`: the LD50 is 4260 mg/kg.

For the compound `CC(=O)c1cccc([N+](=O)[O-])c1`, the LD50 is 3250 mg/kg.

Consider `Cc1cc(C)c(C)c(C)c1`, for which the LD50 was 5160 mg/kg.

As to `Cc1ccc2c(-c3cccc(O)c3)nc(=O)n(C(C)C)c2c1`, the LD50 was 1600 mg/kg.

Regarding `CN(C)c1ccc(Cn2cnc3c2c(=O)n(C)c(=O)n3C)cc1`, the LD50 was 1100 mg/kg.

For `COc1ccc(O)c(C(N)=O)c1`, the LD50 was 1900 mg/kg.

For `N/C(=N\c1c([N+](=O)[O-])cnc2ccccc12)N1CCOCC1`, the LD50 was 4000 mg/kg.

For `CS(=O)(=O)c1ccc(N)c(Cl)c1`, the LD50 is 9500 mg/kg.

`Cc1cc(=O)oc2cc(OP(=O)(OCCCl)OCCCl)ccc12`: the LD50 was 141 mg/kg.

Turning to `COC(=O)C=C1CCCC1`, the LD50 is 3360 mg/kg.

`CC1=CC(=C2C(=O)c3ccccc3C2=O)C=CN1CCN1CCCCC1`: the LD50 was 390 mg/kg.

As for `CCc1ccc(C)cc1O`, the LD50 was 530 mg/kg.

For `CCN(CC)CCc1nc(-c2ccccc2)no1`, the LD50 is 1650 mg/kg.

Regarding `O=NN1CCOCC1`, the LD50 is 282 mg/kg.

Turning to `Cc1ccc(N=CN(C)Sc2ccc(Cl)cc2)c(C)c1`, the LD50 is 320 mg/kg.

For `CCOc1ccc(-c2ccccc2)cc1CN1CCCC1`, the LD50 is 30 mg/kg.

Regarding `CC(=O)C=Cc1ccco1`, the LD50 is 325 mg/kg.

As for `CCC(CN)=C(c1ccccc1)c1ccccc1`, the LD50 is 148 mg/kg.

Consider `C1=CC(c2ccc(C3CC=CCC3)cc2)CCC1` (configuration not stated), for which the LD50 was 17500 mg/kg.

On to `CN1CCC(=C2c3ccccc3Oc3ccc(Cl)cc32)CC1`, for which the LD50 was 319 mg/kg.

`N#Cc1cccnc1`: the LD50 is 1180 mg/kg.

Regarding `CNC(=O)Oc1cc(C(C)C)ccc1C`, the LD50 was 250 mg/kg.

`CNN`: the LD50 is 58 mg/kg.

`O=c1[nH]c2cc(Cl)c(Cl)cc2o1`: the LD50 was 700 mg/kg.

As for `CN(C)CCOC1=Cc2ccccc2Sc2ccc(Cl)cc21`, the LD50 is 306 mg/kg.

Turning to `Cc1c(Cl)c([N+](=O)[O-])c2nc(C(F)(F)F)[nH]c2c1[N+](=O)[O-]`, the LD50 is 105 mg/kg.

On to `FC(F)(F)c1nc2c(Br)c(Br)c(Br)c(Br)c2[nH]1`, for which the 50% lethal dose (LD50) is 5.02 mg/kg.

On to `C[N+](C)([O-])c1ccc(N=Nc2ccccc2)cc1`, for which the LD50 is 2200 mg/kg.

As for `O=[N+]([O-])CCCO`, the LD50 is 77 mg/kg.

For `ClC(Cl)(Cl)c1ccc(C(Cl)(Cl)Cl)cc1`, the LD50 was 3200 mg/kg.

Take `CCN(CCC(=O)OC)c1ccccc1`: the 50% lethal dose (LD50) is 2450 mg/kg.

Consider `NC1=NCC(c2ccccc2)O1` (configuration not stated), for which the LD50 was 25 mg/kg.

`O=S(=O)(Oc1ccc(Cl)cc1Cl)c1ccccc1`: the LD50 was 1000 mg/kg.

For the compound `O=[N+]([O-])c1ccc(O)c2ncccc12`, the LD50 is 510 mg/kg.

On to `CNC[C@H](O)c1ccc(O)c(O)c1`, for which the LD50 is 30 mg/kg and 24 mg/kg.

As for `CN(C)CC(=O)O`, the median lethal dose (LD50) is 3900 mg/kg.

Take `CCCCCCCCCCOC(=O)C[N+](C)(C)CCSCC[N+](C)(C)CC(=O)OCCCCCCCCCC`: the LD50 is 2660 mg/kg.

Turning to `CC(C)OC(=O)C(C(=O)OC(C)C)=C1SCCS1`, the LD50 is 1190 mg/kg.

`O=Cc1ccc(Cl)cc1`: the LD50 was 1580 mg/kg.

Take `CC(N)(Cc1ccc(O)c(O)c1)C(=O)O` (configuration not stated): the LD50 was 5710 mg/kg.

On to `C=COCCOC`, for which the LD50 was 3900 mg/kg.

Regarding `CCOP(=S)(OCC)SCC(=O)OC`, the 50% lethal dose (LD50) was 1000 mg/kg.

Take `CN(C)N=Nc1ccc([N+](=O)[O-])cc1`: the LD50 was 1660 mg/kg.

Turning to `CCOC(=O)C1=CN(CC)C2CCCC(C)N2C1=O` (configuration not stated), the median lethal dose (LD50) is 746 mg/kg.

Consider `CCOC(=O)CC(SP(=O)(OC)OC)C(=O)OCC` (configuration not stated), for which the LD50 was 158 mg/kg.

Turning to `CCCCCCCCCCOS(=O)(=O)O`, the LD50 is 1950 mg/kg.

For the compound `CCOc1ccccc1OCC`, the LD50 was 7250 mg/kg.

As for `c1ccc(C2CCCCC2)c(OCCC2=NCCN2)c1`, the LD50 is 9.2 mg/kg.

With `CCOC(=O)C1(c2ccccc2)CCN(CCOCCO)CC1`, the LD50 was 230 mg/kg.

Consider `CCOC(C(=O)O)(c1ccccc1)c1ccccc1`, for which the LD50 is 1000 mg/kg.

Consider `O=NN1CCN(N=O)CC1`, for which the median lethal dose (LD50) is 160 mg/kg.

In the case of `NN1C(=O)CC(c2cccc(Br)c2)C1=O` (configuration not stated), the LD50 is 1600 mg/kg.

`CCCCCCCCCCCCN1CC(C)OC(C)C1` (configuration not stated): the LD50 is 3500 mg/kg.

For `C[Si](Cn1cncn1)(c1ccc(F)cc1)c1ccc(F)cc1`, the LD50 is 674 mg/kg.

With `CN(C)C(CSS(=O)(=O)O)CSS(=O)(=O)O`, the LD50 is 333 mg/kg.

For the compound `c1ccc2c(CC3=NCCN3)cccc2c1`, the LD50 is 1260 mg/kg.

With `CCC(CCN(CC=C(C)C)CC=C(C)C)(C(N)=O)c1cccc2ccccc12` (configuration not stated), the LD50 was 283 mg/kg.

As to `CN(CCO)c1ccc(N=Nc2c(Cl)cc([N+](=O)[O-])cc2Cl)cc1`, the LD50 is 2820 mg/kg.

On to `CN(C)c1ncnc2c1ncn2CC1CC1`, for which the LD50 was 570 mg/kg.

On to `CCOP(=S)(OCC)SCc1cccc([N+](=O)[O-])c1`, for which the LD50 was 250 mg/kg.

For the compound `CNC(=O)Oc1ccc(C)c(N(C)C)c1`, the LD50 was 46 mg/kg.

On to `Cc1cccc(C)c1N(CCCC(=O)O)C(=O)c1ccc(Cl)cc1`, for which the LD50 is 1900 mg/kg.

`Nc1ccc(C(=O)c2ccccc2)c(C(=O)O)c1`: the LD50 is 5400 mg/kg.

Take `Cc1cc(C)cc(O)c1`: the LD50 is 608 mg/kg.

As to `COc1ccc2oc(N)nc2c1`, the LD50 is 1000 mg/kg.

Consider `CCP(c1ccccc1)c1ccccc1`, for which the LD50 was 500 mg/kg.

For the compound `COc1cc(NC(=O)CC(C)=O)c(OC)cc1Cl`, the LD50 is 850 mg/kg.

Consider `Cc1ccc(OCC(O)CNC(C)(C)C)c2oc(=O)ccc12` (configuration not stated), for which the LD50 was 676 mg/kg.

On to `O=C(O)CCCCCCCCCl`, for which the LD50 is 3000 mg/kg.

For `Cc1ccccn1`, the LD50 is 790 mg/kg.

For the compound `NN1C(=O)CSC1=S`, the LD50 is 2.21 mg/kg.

For `CCCCSc1nc2ccccc2s1`, the LD50 is 1270 mg/kg.

As to `Clc1cccc(-c2cc(Cl)cc(Cl)c2)c1`, the LD50 was 2300 mg/kg.

For the compound `Nc1ccc(Br)cc1`, the LD50 is 456 mg/kg.

For the compound `O=C(CI)NC(=O)CI`, the LD50 was 650 mg/kg.

As to `COc1nc(C)nc(NC(=O)NS(=O)(=O)c2ccccc2Cl)n1`, the LD50 is 9370 mg/kg.

`CC=CC=CC=CC(C)=O`: the LD50 was 4300 mg/kg.

In the case of `N#CC(=Cc1ccc(Cl)cc1Cl)C(=O)O`, the LD50 was 50 mg/kg.

Regarding `CCBr`, the LD50 was 1350 mg/kg.

Regarding `COP(=S)(OC)SCn1ncccc1=O`, the LD50 is 3.5 mg/kg.

`CCOP(=S)(OCC)N(SN(C)C(=O)ON=C(C)SC)C(C)C`: the LD50 was 325 mg/kg.

For `CC(C)COC(=O)c1ccccc1O`, the LD50 was 1560 mg/kg.

Consider `Cc1cc(O)c(C(C)(C)C)cc1C`, for which the LD50 was 1030 mg/kg.

Turning to `OCC(O)CCl` (configuration not stated), the LD50 was 26 mg/kg.

For `CNCCCC1c2ccccc2CN(C)c2ccccc21` (configuration not stated), the LD50 is 331 mg/kg.

Consider `C[N+](C)(C)CCBr`, for which the LD50 was 190 mg/kg.

`COCCOc1cnc(NS(=O)(=O)c2ccccc2)nc1`: the LD50 is 3100 mg/kg.

Consider `Nc1cccc(N(CCO)CCO)c1`, for which the LD50 was 246 mg/kg.

For `NCC(=O)O`, the LD50 is 7930 mg/kg and 3340 mg/kg.

As for `CCCC=C(CC)[N+](=O)[O-]`, the LD50 is 620 mg/kg.

For `ClCc1cccnc1`, the LD50 is 316 mg/kg.

Take `Cc1nccnc1SCc1ccco1`: the LD50 was 1000 mg/kg.

Take `CCCCCCCCCCCC(=O)OC1=C(c2c(C)cc(C)cc2C)C(=O)c2ccccc21`: the LD50 was 9500 mg/kg.

For the compound `CC1(C)C(C=NOCc2ccco2)C1C(=O)OC(C#N)c1cccc(Oc2ccccc2)c1` (configuration not stated), the LD50 was 91 mg/kg.

Turning to `ON=C1C=CC(=NO)C=C1`, the LD50 is 464 mg/kg.

In the case of `O=C(O)c1ccc(Cl)c([N+](=O)[O-])c1`, the LD50 was 3150 mg/kg.

On to `CN1CCC(=C2c3ccccc3C(O)c3ccccc32)CC1` (configuration not stated), for which the LD50 was 135 mg/kg.

With `O=NN1CN(N=O)CN(N=O)C1`, the LD50 was 160 mg/kg.

Take `Cc1c(Cl)c(Cl)c(Cl)c2[nH]c(C(F)(F)F)nc12`: the LD50 was 6.49 mg/kg.

On to `CN(C)CCCN(C)[C@H]1CC[C@H]2[C@@H]3CC=C4C[C@@H](O)CC[C@]4(C)[C@H]3CC[C@]12C`, for which the LD50 was 470 mg/kg.

As to `C1COCCOCCNCCOCCOCCN1`, the LD50 was 3400 mg/kg.

On to `CN(C)CCC#N`, for which the LD50 is 2600 mg/kg.

As to `O=C1OC2(c3ccc(O)cc3Oc3cc(O)ccc32)c2ccccc21`, the LD50 is 6720 mg/kg.

Take `NCC1CCC(CN)CC1` (configuration not stated): the LD50 is 530 mg/kg.

In the case of `Cc1cc(C(=O)c2ccccc2)ccc1N`, the LD50 is 700 mg/kg.

As for `C=C[Si](Cl)(Cl)CC`, the LD50 is 2830 mg/kg.

On to `CCN(CC)CCOCc1ccc(C)cc1`, for which the LD50 is 531 mg/kg.

`OCC1CCc2cc(C3CCCCC3)ccc21` (configuration not stated): the LD50 was 295 mg/kg and 165 mg/kg.

For `C=CC(=O)N(C)C`, the LD50 is 316 mg/kg.

Regarding `FC(F)(F)C(=NOCC1OCCO1)c1ccc(Cl)cc1`, the LD50 is 669 mg/kg.

`C=CC[C@@H]1C=C(C)C[C@H](C)C[C@H](OC)[C@H]2O[C@@](O)(C(=O)C(=O)N3CCCC[C@H]3C(=O)O[C@H](/C(C)=C/[C@@H]3CC[C@@H](O)[C@H](OC)C3)[C@H](C)[C@@H](O)CC1=O)[C@H](C)C[C@@H]2OC`: the LD50 was 134 mg/kg.

As for `CC(C)c1cccc(C(C)(C)O)c1`, the LD50 was 6000 mg/kg.

Consider `CCCCC(CC)COC(C[n+]1ccccc1)c1cccc(C2CCCCC2)c1` (configuration not stated), for which the LD50 was 250 mg/kg.

Consider `CCC12CCCN3CCc4c(n(c5cc(Br)ccc45)C(O)(C(=O)OC)C1)C32` (configuration not stated), for which the LD50 was 1740 mg/kg.

For `CC(C)OP(=S)(CCl)Sc1ccc(F)cc1` (configuration not stated), the LD50 was 39 mg/kg.

Take `C[C@]12CC[C@@H]3c4ccc(OC(=O)N(CCCl)CCCl)cc4CC[C@H]3[C@@H]1CC[C@@H]2OP(=O)(O)O`: the LD50 was 5400 mg/kg.

Take `CCCCCC(C)NC` (configuration not stated): the LD50 is 320 mg/kg.

As for `CCSC(=S)N(C)C`, the median lethal dose (LD50) is 550 mg/kg.

Turning to `COc1ccc(NS(=O)(=O)c2ccc(N)cc2)nn1`, the LD50 was 2740 mg/kg.

Take `ClC=C(Cl)CCl`: the LD50 was 616 mg/kg.

On to `CC=Cc1ccc(OC(C)=O)c(OC)c1`, for which the LD50 was 3450 mg/kg.

As for `CCCN(CCC)c1c([N+](=O)[O-])cc(C(F)(F)F)cc1[N+](=O)[O-]`, the LD50 is 1930 mg/kg.

Consider `CC(Oc1c(Cl)cccc1Cl)C1=NCCN1` (configuration not stated), for which the LD50 was 70 mg/kg.

Turning to `CCCCB(CCCC)CCCC`, the LD50 was 1120 mg/kg.

As for `O=C(O)[C@@H]1CC[C@H](C(=O)O)C1`, the LD50 was 3250 mg/kg.
